# Test results from US7514432B2, “Compounds and methods of treating cell proliferative diseases, retinopathies and arthritis” (Exonhit Therapeutics SA, priority 2003, dated 2009).
# How the values were obtained:
# DLD1 = test: Cell viability assay (MTT), DLD1; assay type: cell-based; details: Homo sapiens, DLD-1, 72 h, 10% FBS, 3-day treatment, 1% DMSO
# Method: Table 14: 3-day cell viability assay (MTT) in the presence of 10% Fetal Bovine Serum and 1% DMSO, in DLD1, HCT116, MDA-MB-231, MCF7 and HeLa cells. 7.5 10^3 to 1.5 10^4 cells were seeded in 48-well plates in growth medium containing 10% FBS, with or without various concentrations of test compounds. Data were analyzed and IC50s were calculated from dose-response curves using GraphPad Prism. Results summarized in the tables are mean±SEM of 1 to 7 independent experiments.
# In order to determine a compound's effect on cell viability, microculture tetrazolium assays (MTT) were performed as described by Carmichael et al. (1996) with modifications. Four human tumoral cell lines, namely HCT116 colon adenocarcinoma, H460 lung carcinoma, MCF-7 and MDA-MB-231 breast carcinoma cell lines, DLD1 colorectal adenocarcinoma, HeLa adenocarcinoma, HepG2 hepatocellular carcinoma. 3 immortalized but non tumorigenic cell lines, namely NIH3T3 mouse fibroblasts (American Type Culture Collection) and primary hepatocytes (Biopredic international), cultured according to their recommendations together with Human Microvasculature Endothelial Cell line HMEC1 (National Center for Infectious Diseases). Briefly, cells were seeded in 48-well plates 24 hours before drug addition. Cells were treated with 0 to 200 μM (11 concentrations) of compound solubilized in DMSO, adjusting the final concentration of DMSO to 1% in the well. 16 hours, and three or six days after treatment, 0.5 mg/ml MTT (Sigma) was added to the medium and cells were incubated for 1-5 hours at 37° C. before solubilization of formazan crystals in 100% DMSO. Absorbance was measured using a spectrophotometer at a wavelength of 550 nm. Data was analyzed using the GraphPad Prism software (GraphPad Software, Inc.), and IC50 (dose leading to 50% cell death) was calculated from the dose-response curves.
# [1] = tested on: quiescent Swiss 3T3 cells; test: Compounds' effect on the actin cytoskeleton (Rac-induced ruffles); assay type: cell-based; details: 30 min pre-treatment, subtoxic doses; osmotic shock 10 min (50% H2O)
# Method: FIG. 1: Study of compounds effect on the actin cytoskeleton. Quiescent Swiss 3T3 cells were treated for 30 minutes with various concentrations of the compounds and were then submitted to osmotic shock by 10 min. incubation in a medium containing 50% H2O. Cells were subsequently fixed, permeabilized and labeled with Phalloidin TRITC. 100 to 200 cells were counted under a microscope, and the percentage of cells displaying lamellipodia and ruffles was evaluated.
# Quiescence of Swiss 3T3 cells: Cells are seeded at high density on coverslips in 5% FCS medium (special weak FCS). When cells become quiescent (after 6-10 days of culture), the medium is removed (a few microliters remaining in the well) and replaced with serum free medium. Cells are placed in the incubator overnight. […]
# Immunofluorescence • Fixation and permeabilization: Medium is aspirated from the culture wells and replaced with fixation buffer (BRB80: 80 mM KPipes pH 6.8, 2 mM MgCl2, 5 mM EGTA, 0.3% paraformaldehyde). […] Mounting is allowed to dry at 37° C. for 1 h. • Quantification of the effect of the compounds: The total number of cells is counted under the microscope (at least three different fields, e.g. between 100 and 200 cells). The number of cells bearing the morphological features of interest is evaluated. The percentage of cells bearing the morphological features of interest is then calculated.
# HMEC-1 cells = test: Tubule formation (tubulogenesis) assay on Matrigel; assay type: cell-based, Human; details: HMEC1 on Matrigel; for IC50: Homo sapiens, HMEC-1, 6 to 8 hours, read-out: IC50, tubulogenesis (number of junctions)
# Method: FIG. 5: Tubulogenesis assay (number of junctions). 2 10^4 Cells were plated on Matrigel-coated wells as described in the material and methods. Pictures of each well were taken after a 7-hours incubation. The “number of junctions” parameter was quantitated using the AngioSys software and data were analyzed using GraphPad Prism for IT50 calculation. Values represent the mean±SEM of 2 to 30 independent experiments.
# The endothelial cell tube formation assay, or tubulogenesis assay, is an in vitro assay that is widely accepted to accurately reflect number of terminal stages of the angiogenic process such as attachment, migration and differentiation into tubular structures. In this model, endothelial cells are cultured on a monolayer of reconstituted basement membrane components (Matrigel) and form, in a few hours, capillary-lilke structure. Therefore, this system is a useful and powerful tool for rapidly screening anti-angiogenic agents by monitoring inhibition of endothelial cells morphogenesis on extracellular matrix.
# HMEC-1 cell line is cultured in MCDB-131 medium (Sigma) supplemented with 15% FBS, 10 ng/ml recombinant human epidermal growth factor (Invitrogen) and 1 μg/ml hydrocortisone. Cells are cultured to 70-80% confluence. A 96-well plate was coated with Matrigel® Basement Membrane Matrix (Becton Dickinson). 2 10^4 HMEC-1 cells were seeded into each well. The test or control compounds were diluted in DMSO and added to the coated plate. The plate was subsequently incubated for 6 to 8 hours at 37° C., 5% CO2 atmosphere to allow tubule formation. The cells were then incubated with 1.25 μg/ml Calcein AM for 15 minutes at 37° C., 5% CO2. Pictures of each well were taken using a fluorescent microscope and a digital camera (Nikon Coolpix 990). Images were analysed using AngioSys software (TCS Cellworks) that allows quantification of the total tubule length and of the number of junctions, two parameters representative of tubule formation/disruption. Data was analyzed using the GraphPad Prism software, and IT50s (dose leading to 50% inhibition of tubulogenesis) was calculated.
Compound,IC50 (DLD1) [µM],formation of ruffles induced by Rac after osmotic shock [1],fold more active than reference compound CAI in tubulogenesis (HMEC-1 cells) [fold],IC50 (HMEC-1 cells) [µM]
"Cl.Cl.O=c1cc(CN2CCOCC2)occ1OCCCCCSc1ccnc2cc(C(F)(F)F)ccc12 [EHT 1864, 5-(5-(7-(Trifluoromethyl)quinolin-4-ylthio)pentyloxy)-2-(morpholinomethyl)-4H-pyran-4-one dihydrochloride]",21.9,dose-dependently prevents formation of ruffles,4,34.9 ± 3.5
"Cl.Cl.Cl.O=c1cc(CN2CCNCC2)occ1OCCCCCSc1ccnc2cc(C(F)(F)F)ccc12 [EHT 8560, 5-(5-(7-(Trifluoromethyl)quinolin-4-ylthio)pentyloxy)-2-((piperazin-1-yl)methyl)-4H-pyran-4-one trihydrochloride]",5.6,,,17 ± 3.6
"CN1CCN(Cc2cc(=O)c(OCCCCCSc3ccnc4cc(C(F)(F)F)ccc34)co2)CC1.Cl.Cl.Cl [EHT 9241, 5-(5-(7-(Trifluoromethyl)quinolin-4-ylthio)pentyloxy)-2-((4-methylpiperazin-1-yl)methyl)-4H-pyran-4-one trihydrochloride]",8.1,dose-dependently prevents formation of ruffles,,26 ± 8.7
